Values quoted from earlier work as cited in US9302977B2, “Method of making monomethyl fumarate” (XenoPort, Inc., priority 2013, dated 2016).
Structures can show the parent of a compound that is named as a salt.

Columns and labels:
[1] = tested on: TNF-induced NF-κB signaling
[2] = as an impurity

Row | TNF-induced DNA binding of NF-κB proteins [1] | aqueous solubility | Structure (SMILES) | TNF-induced nuclear entry of activated NF-κB proteins [1] | TNF-induced tissue factor mRNA and protein expression [1] | genotoxicity [2]
1 | inhibits | poor | COC(=O)/C=C/C(=O)OC [DMF, dimethyl fumarate] | inhibits | inhibits | 
2 |  |  | COS(=O)(=O)OC [Dimethyl sulfate] |  |  | genotoxic
